Experiments:
[1] = system: human prostate cancer 22Rv1 cells; assay: Antitumor effect in vivo, mouse model transplanted with human prostate cancer 22Rv1 cells; details: 22Rv1 subcutaneous transplant in BALB/cAJc1-nu mice; 100 mg/kg intravenously twice a day on days 0 to 4; tumor volume to day 17
Method: Using an experimental system in which human prostate cancer 22Rv1 cells were transplanted into immunodeficient mice as disease models of solid tumor, the antitumor effect in vivo of Compound 33 was examined.
(§1) 22Rv1 cells were cultured and grown in RPMI1640 medium containing 10% fetal calf serum (FCS) in a 5% carbon dioxide incubator at 37° C., and the cultured cells (1×10^7 cells/mouse) were subcutaneously, ventrally transplanted into BALB/cAJc1-nu mice (CLEA Japan). Seventeen days after the transplantation, the major axis and minor axis of the tumors subcutaneously grown were measured with slide calipers, and the tumor volume was determined according to the following formula: […]
(§2) At the same time, the body weight of each mouse was measured, and the mice were divided into two groups, i.e., a group to be administered with drugs and a group not to be administered with drugs, such that each group consists of five mice with various weights and tumor volumes. This day was defined as day 0 of the administration test. Drug administration was started in the following manner. […]

[2] = system: human chronic myelocytic leukemia K562 cells; assay: Antitumor effect in vivo, mouse model transplanted with human chronic myelocytic leukemia K562 cells; details: K562 subcutaneous transplant in Fox C.B-17/Icr-scid mice; 100 mg/kg intravenously twice a day on days 0, 1, 2, 7, 8, 9; tumor volume to day 22
Method: Using an experimental system in which human chronic myelocytic leukemia K562 cells were transplanted into immunodeficient mice as disease models of hematopoietic tumor, the antitumor effect in vivo of Compound 33 was examined.
as §1, with “One day before the transplantation of cancer cells, an anti-asialo GM1 antibody was intraabdominally administered to Fox C.B-17/Icr-scidJc1 mice (CLEA Japan) in an amount of 0.3 mg per mouse. K562” for “22Rv1”, “the mice. Ten” for “BALB/cAJc1-nu mice (CLEA Japan). Seventeen”
as §2

[3] = system: human lung cancer NCI-H596 cells; assay: Antitumor effect in vivo, mouse model transplanted with human lung cancer NCI-H596 cells; details: NCI-H596 subcutaneous transplant in BALB/cAJc1-nu mice; 50 mg/kg intravenously twice a day on days 0 to 4; tumor volume to day 17
Method: Using an experimental system in which human lung cancer NCI-H596 cells were transplanted into immunodeficient mice as disease models of solid tumor, the antitumor effect in vivo of Compound 33 was examined.
as §1, with “NCI-H596” for “22Rv1”, “Japan). From the mice in which tumors were formed, the tumors were removed. The tumor tissues were cut into small pieces of about 8 mm^3, which were subcutaneously, ventrally transplanted, using a trocar needle, into BALB/cAJc1-nu mice (CLEA Japan) to be used for experiment.” for “Japan).”
as §2

CCc1c(O)cc(O)c(C(=O)c2ccc(OC)cc2)c1CC(=O)N(CCO)CCOC [Compound 33]
apparent suppression of tumor growth: antitumor effect in vivo (tumor volume, FIG. 3) [1] | antitumor effect in vivo (tumor volume, FIG. 1) [2] | antitumor effect in vivo (tumor volume, FIG. 2) [3]

— patent US20090042883A1, “ANTITUMOR AGENT” (KYOWA HAKKOKOGYO CO., priority 2005, published 2009)
